These results are taken from patent US9295671B2, “Benzenesulfonamide derivatives of quinoxaline, pharmaceutical compositions thereof, and their use in methods for treating cancer” (NEUPHARMA, INC., priority 2011, dated 2016).

In general, pIC50 refers to the IC50 on a negative log10 scale, so that one unit is a factor of ten. Low values mean a high IC50, high ones a low IC50. Usually inhibition stands for the change of the read-out against control, counted positive when it falls. Lower therefore signals a weak effect.

The subject of one experiment is A375 tumor xenograft. Kind of experiment: Inhibition of tumor growth in A375 tumor xenograft model. The following applies: nude mice, Compound 12.5 mg/kg b.i.d. × 20 i.g., Cisplatin 6 mg/kg q7d × 3 i.p. The experiment is classed as in vivo, BALB/c female nude mice. The protocol: Cells were implanted in BALB/c female nude mice and grown as tumor xenografts. When tumors achieved 120-200 mm^3, mice were assigned into treatment and control groups using randomized block design based upon their tumor volumes. Each group contained 6 tumor-bearing mice. Tumors were measured twice weekly in two dimensions using a caliper, and the tumor volume was calculated from two-dimensional measurements using the equation V=0.5×a×b^2 where a and b are the long and short diameters of the tumor, respectively. Relative tumor volume (RTV) was defined as TVt/TVi, the ratio of the volume on a given day (TVt) and the volume at the start of treatment (TVi). Relative tumor growth rate (T/C) was defined as RTVT/RTVC, the ratio of relative tumor volume of treatment group (RTVT) and relative tumor volume of control group (RTVC) on a given day. Inhibition of tumor growth in a A375 tumor xenograft model is shown below in Table 6 for a compound of Table 1.

In experiment [1] the test system is SK-MEL-28 (human melanoma cell, BRAF V600E Mutant). Kind of experiment: Inhibition of cancer cell growth, MTT or MTS assay, SK-MEL-28. The experiment is classed as cell-based. The following applies: 72 h, highest concentration 10 μM. The protocol: (§1) A375 (human melanoma cell, BRAF V600E Mutant), CHL-1 (human melanoma cell, BRAF wild type), SK-MEL-28 (human melanoma cell, BRAF V600E Mutant) and SK-MEL-31(human melanoma cell, Braf WT Mutant) were purchased from ATCC (American Type Culture Collection, Manassas, Va.). All cell lines were maintained in RPMI 1640 (Hyclone) or DMEM (Hyclone) supplemented with 10% fetal bovine serum (FBS, Hyclone), glutamine (2 mM, Hyclone), and antibiotics (penicillin 100 U/mL and streptomycin 50 μg/mL) at 37° C. in a humidified atmosphere of 5% CO2 in air.
(§2) To test IC50 of inhibition of individual compounds against each cell line, A375, SK-MEL-28and SK-MEL-31 cells were first plated in 96-well plates at densities of 3000 cells/well, and CHL-1 2500 cells/well. Cells were then incubated to allow cells to adhere and grow for 24 h. Cells were then treated with a series of concentrations of compounds for 72 h. The highest concentration of compounds was 10 μM for A375 and SK-MEL-28 cells and 100 μM for CHL-1 and SK-MEL-31 cells. Cells were then removed from the incubator and medium was removed by inverting and tapping the plates. 100 μL of MTT (0.5 mg/ml) or 10 μL or MTS was added to each well followed by an incubated at 37° C. for 4 h. Then MTT was removed and 200 μL of DMSO was added to each well, followed by reading the ODs at 570 nm after a 5 second shaking cycle in a 96-well spectrophotometer. For MTS method, MTS was not removed, and the incubated solutions were directly put in a 96-well spectrophotometer for the reading of the ODs at 492 nm.
(§3) IC50 was calculated by plotting the concentration of compound vs the percentage of inhibition in treated wells using GraphPad Prism 5. […] The scale utilized in Table 5 is as follows: +++ less than 500 nM; ++ between 500 nM and 1 μM; and + greater than 1 μM.
For orientation: Tetrazolium assays rely on reduction of a dye to a coloured formazan, in cell work by metabolically active cells.

The subject of experiment [2] is A375 (human melanoma cell, BRAF V600E Mutant). The experiment in a line: Inhibition of cancer cell growth, MTT or MTS assay, A375. The experiment is classed as cell-based. The following applies: A-375, 72 h, highest concentration 10 μM (Table 5). Here is the method:
as §1, §2, §3

Experiment [3] has as its target T1, BRAF (Homo sapiens, UniProt P15056).
T1 construct: purchased Invitrogen
The experiment in a line: Z′-LYTE kinase assay, BRAF (Invitrogen). The experiment is classed as biochemical. The conditions noted are these: Z′-LYTE method. Here is the method: (§4) Inhibitory activities of compounds against BRAF or BRAF V600E were measured by Invitrogen using Z′-LYTE® Method as briefly described in the following.
(§5) 4× Test compounds are dissolved in 1% DMSO. […] ATP solutions are diluted to a 4×ATP working concentration in Kinase Buffer (50 mM HEPES pH 7.5, 0.01% BRIJ-35, 10 mM MgCl2, 1 mM EGTA).
(§6) Reaction starts by 30-second shaking of mixture consisting of 2.5 μL4× test compound, […] and 2.5 μL 4×ATP Solution on Bar-coded Corning, low volume NBS, black 384-well plate (Corning Cat. #3676). Then the mixture is incubated for 60-minute at room temperature for the kinase reaction, followed by addition of 5 μL of a 1:1024 dilution of development reagent A and 30-second plate shake. The mixture is then incubated for another 60-minute at room temperature for development reaction. Finally fluorescence is read by plate reader.

Experiment [4] concerns the target T2, BRAF V600E (Homo sapiens, UniProt P15056, V600E).
T2 construct: purchased Invitrogen
The experiment in a line: Z′-LYTE kinase assay, BRAF V600E (Invitrogen). The experiment is classed as biochemical. The following applies: Z′-LYTE method. The protocol: as §4, §5, §6

Experiment [5] concerns SK-MEL-31 (human melanoma cell, Braf WT Mutant). The experiment in a line: Inhibition of cancer cell growth, MTT or MTS assay, SK-MEL-31. The experiment is classed as cell-based. The conditions noted are these: 72 h, highest concentration 100 μM. The protocol: as §1, §2, §3
Experiment [6] concerns the target T2, BRAF V600E. The experiment in a line: LanthaScreen kinase assay, BRAF V600E. The experiment is classed as biochemical. The conditions noted are these: ATP 10 μM. Here is the method: (§7) The inhibitory activities of compounds against BRAF or BRAF V600E protein were measured using Invitrogne's LanthaScreen™ kinase assay which is based on fluorescein-labeled MAP2K1 as a substrate. The assay procedure is described as follows.
(§8) The scale utilized in Table 3 is as follows: ++++ less than 50 nM; +++ between 50 and 100 nM; ++ between 100 nM and 1 μM; and + greater than 1 μM.
(TR-FRET usually uses a lanthanide donor and a delayed reading to cut background.)

Experiment [7] relates to CHL-1 (human melanoma cell, BRAF wild type). Kind of experiment: Inhibition of cancer cell growth, MTT or MTS assay, CHL-1. The experiment is classed as cell-based. The conditions noted are these: 72 h, highest concentration 100 μM. Here is the method:
as §1, §2, §3

Experiment [8] addresses T1, BRAF. Kind of experiment: LanthaScreen kinase assay, BRAF. The experiment is classed as biochemical. The following applies: ATP 1 μM. Here is the method:
as §7, §8

pIC50: −log10 of the molar value.

T2 sequence (P15056 whole entry V600E): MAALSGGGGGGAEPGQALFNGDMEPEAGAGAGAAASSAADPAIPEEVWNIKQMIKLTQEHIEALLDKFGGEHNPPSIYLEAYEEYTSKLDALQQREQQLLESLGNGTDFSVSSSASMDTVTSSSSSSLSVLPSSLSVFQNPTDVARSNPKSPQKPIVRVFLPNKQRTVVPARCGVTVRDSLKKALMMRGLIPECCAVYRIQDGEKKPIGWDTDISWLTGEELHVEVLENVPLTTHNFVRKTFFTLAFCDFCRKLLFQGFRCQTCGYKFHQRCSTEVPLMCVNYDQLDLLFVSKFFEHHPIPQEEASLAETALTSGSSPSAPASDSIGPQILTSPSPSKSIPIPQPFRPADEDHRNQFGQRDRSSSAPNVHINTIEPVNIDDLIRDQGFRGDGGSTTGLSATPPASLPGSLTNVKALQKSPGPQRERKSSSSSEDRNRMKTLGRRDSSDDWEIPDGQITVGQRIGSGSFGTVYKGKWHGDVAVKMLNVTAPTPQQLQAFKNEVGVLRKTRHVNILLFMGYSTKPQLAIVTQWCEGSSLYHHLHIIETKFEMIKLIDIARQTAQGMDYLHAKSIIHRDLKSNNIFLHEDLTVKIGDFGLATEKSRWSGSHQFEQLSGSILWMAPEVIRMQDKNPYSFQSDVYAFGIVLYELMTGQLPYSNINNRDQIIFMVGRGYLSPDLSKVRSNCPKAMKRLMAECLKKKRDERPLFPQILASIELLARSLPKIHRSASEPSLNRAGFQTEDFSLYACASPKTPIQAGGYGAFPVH
T1 sequence (P15056 whole entry): as the sequence (P15056 whole entry V600E) above, with E600V counted along it

With `N.N.[Cl][Pt][Cl]` [Cisplatin], in the experiment on A375 tumor xenograft, the “Tumor Volume Post-treatment” value stood at 647 mm^3 and the “Tumor Volume Pre-treatment” value is listed as 136 mm^3. Further, the “T/C (relative tumor growth rate, RTVT/RTVC)” value with A375 tumor xenograft (*p < 0.05, **p < 0.01) is listed as 44.4%*.

For the compound `CCCS(=O)(=O)Nc1cc(F)c(F)c(C(=O)c2ccc3nccnc3c2)c1F` [Compound C04, N-(2,4,5-trifluoro-3-(quinoxaline-6-carbonyl)phenyl)propane-1-sulfonamide], the pIC50 in [1] was above 6.30; in [2], above 6.30; against BRAF V600E [6], above 7.30; against BRAF [8], 7.00 to 7.30. Besides, the inhibition at 1 µM on BRAF [3] and against BRAF V600E [4] was above 89% each time. Besides, the “IC50 SK-MEL-31” value in experiment [5] is “No inhibition”. Besides, the “IC50 CHL-1” value in experiment [7] is reported as “No inhibition”.

For `CCCS(=O)(=O)Nc1ccc(F)c(C(=O)c2ccc3nccnc3c2)c1Cl` [Compound C06, N-(2-chloro-4-fluoro-3-(quinoxaline-6-carbonyl)phenyl)propane-1-sulfonamide], the pIC50 in experiment [2] was above 6.30; against BRAF V600E [6], above 7.30; on BRAF [8], 6.00 to 7.00. For the same compound, the inhibition at 1 µM was 70 to 89% at BRAF [3] and above 89% on BRAF V600E [4]. The “IC50 CHL-1” value in experiment [7] is recorded as “No inhibition”.

With `CCCS(=O)(=O)Nc1cc(F)c(F)c(C(=O)c2ccc3ncc(N4CCOCC4)nc3c2)c1F` [Compound C09, N-(2,4,5-trifluoro-3-(3-morpholinoquinoxaline-6-carbonyl)phenyl)propane-1-sulfonamide], the pIC50 in experiment [1] is above 6.30; in experiment [2] it was above 6.30; against BRAF V600E [6] it was above 7.30; against BRAF [8], 7.00 to 7.30. The inhibition at 1 µM against BRAF [3] and against BRAF V600E [4] was above 89% throughout. Besides, in experiment [5], the “IC50 SK-MEL-31” value was “No inhibition”. For the same compound, in [7], the “IC50 CHL-1” value is reported as “No inhibition”.

Take `CCCS(=O)(=O)Nc1cc(F)c(F)c(C(=O)c2ccc3ncc(-c4ccc(Cl)cc4)nc3c2)c1F` [Compound C12, N-(3-(3-(4-chlorophenyl)quinoxaline-6-carbonyl)-2,4,5-trifluorophenyl)propane-1-sulfonamide]: the pIC50 was 6.00 to 6.30 in [1] and above 6.30 in experiment [2]. Moreover, the results for the inhibition at 1 µM at BRAF [3] and on BRAF V600E [4] were 70 to 89% and above 89%, respectively. Also, the “IC50 SK-MEL-31” value in [5] was “No inhibition”. Moreover, the “IC50 CHL-1” value in [7] is “No inhibition”.
